Results taken from PMC9851200, “Multiparameter phenotypic screening for endogenous TFEB and TFE3 translocation identifies novel chemical series modulating lysosome function” (Autophagy, 2022).
Where two headings read alike, the source gives them in different places.

Legend:
endogenous TFEB = test: TFEB nuclear translocation, immunocytochemistry high-content imaging; assay type: cell-based
SH-SY5Y cells [1] = tested on: SH-SY5Y cells; note: reference of the scale not given here
SH-SY5Y cells [2] = test: AK (adenylate kinase) release ToxiLight cytotoxicity assay; note: reference of the scale not given here
endogenous TFE3 = test: TFE3 nuclear translocation, immunocytochemistry high-content imaging; assay type: cell-based
SH-SY5Y cells [3] = test: Nuclear count from microscopy images (cellular growth and toxicity); note: reference of the scale not given here
[4] = PKIS2 primary screening, DQ Red BSA intensity
[5] = PKIS2 primary screening, DQ Red BSA spot count

Compound | TFEB % (endogenous TFEB; PKIS2 primary screening) [%] | DQ Intensity (SH-SY5Y cells [1]; PKIS2 primary screening) | DQ Spot (SH-SY5Y cells [1]; PKIS2 primary screening) | AK (SH-SY5Y cells [2]; PKIS2 primary screening) | TFE3 % (endogenous TFE3; PKIS2 primary screening) [%] | Nuclear Count (SH-SY5Y cells [3]; PKIS2 primary screening) | DQ Intensity (SH-SY5Y cells [1]; [4]) | DQ Spot (SH-SY5Y cells [1]; [5]) | TFEB % (endogenous TFEB; PKIS2 primary screen) [%] | DQ Intensity (SH-SY5Y cells [1]; PKIS2 primary screen, DQ Red BSA intensity) | DQ Spot (SH-SY5Y cells [1]; PKIS2 primary screen, DQ Red BSA spot count) | AK (SH-SY5Y cells [2]; PKIS2 primary screen) | TFE3 % (endogenous TFE3; PKIS2 primary screen) [%] | Nuclear Count (SH-SY5Y cells [3]; PKIS2 primary screen)
CSc1nn2c(=O)cc(N3CCOCC3)nc2n1Cc1cccc(Cl)c1Cl [UNC10225435A] | 4.09 | 59.30 | 119.93 | 85.33 | 19.82 | 99.93 |  |  |  |  |  |  |  | 
CSc1cccc2c(-c3ccncn3)c(-c3ccc(F)cc3)nn12 [UNC10225437A] | 6.79 | 120.45 | 125.69 | 100.64 | 10.83 | 89.95 |  |  |  |  |  |  |  | 
O=c1cc(N2CCOCC2)nc2n(Cc3cccc4ccccc34)ccn12 [UNC10225439A] | 8.17 | 73.77 | 88.56 | 77.38 | 9.76 | 128.21 |  |  |  |  |  |  |  | 
Cl.O=C(Nc1cccc(-c2nn3ncccc3c2-c2ccnc(Nc3cccnc3)n2)c1)c1c(F)cccc1F [UNC10225440A] | 7.43 | 138.59 | 122.41 | 101.41 | 9.74 | 119.73 |  |  |  |  |  |  |  | 
Oc1cc(Nc2ccnc3cc(I)ccc23)ccc1F [UNC10225441A] | 12.97 |  |  | 73.72 | 8.03 | 104.34 | 124.88 | 110.03 |  |  |  |  |  | 
CN1CCC(n2cnc(-c3ccc(F)cc3)c2-c2ccnc(NC3CCNCC3)n2)CC1 [UNC10225443A] | 5.73 | 104.65 | 93.05 | 75.10 | 14.45 | 105.97 |  |  |  |  |  |  |  | 
COc1ccc(NC(=O)Nc2ccc(C)c(-c3ccc(C(=O)Nc4ccncc4)cc3)c2)cc1 [UNC10225445A] | 6.73 | 64.07 | 80.56 | 81.64 | 17.87 | 96.32 |  |  |  |  |  |  |  | 
Cc1n[nH]c2ccc(-c3cc(OC[C@@H](N)Cc4ccccc4)cnc3-c3ccoc3)cc12.O=C(O)C(F)(F)F.O=C(O)C(F)(F)F [UNC10225447A] | 5.41 | 66.58 | 65.23 | 97.39 | 18.99 | 74.49 |  |  |  |  |  |  |  | 
COc1cc2ncn(-c3cc(OCCCc4ccccc4)c(C(N)=O)s3)c2cc1OC [UNC10225450A] | 3.13 | 116.92 | 123.73 | 94.56 | 11.96 | 118.22 |  |  |  |  |  |  |  | 
O=C(O)C(F)(F)F.O=c1[nH]ccc2nc(N[C@@H]3CCNC3)nc(Nc3ccc4c(c3)S(=O)(=O)CC4)c12 [UNC10225451A] | 7.05 | 83.68 | 100.25 | 185.61 | 16.36 | 98.38 |  |  |  |  |  |  |  | 
CN(C)CCNS(=O)(=O)c1ccc(-c2ccnc3[nH]ccc23)cc1 [UNC10225452A] | 4.89 |  |  | 114.11 | 16.94 | 78.72 | 125.57 | 113.31 |  |  |  |  |  | 
COc1cccc(-n2cnc3c(N)ncnc32)c1 [UNC10225454A] | 7.17 | 95.23 | 104.69 | 83.60 | 8.30 | 128.34 |  |  |  |  |  |  |  | 
CCN(CC)CCOc1ccc(Nc2ncc3cc(-c4c(Cl)cccc4Cl)c(=O)n(C)c3n2)cc1 [UNC10225459A] |  |  |  |  |  |  |  |  | 22.54 | 115.72 | 64.83 | 131.29 | 18.27 | 26.96
CCn1c(-c2nonc2N)nc2c(C#CC(C)(C)O)nc(OCCN)cc21.Cl.Cl [UNC10225460A] | 9.06 | 74.51 | 103.98 | 78.09 | 15.40 | 55.94 |  |  |  |  |  |  |  | 
O=S(=O)(c1ccc(-c2ccnc3[nH]ccc23)cc1)N1CCCC1 [UNC10225462A] | 5.43 |  |  | 140.08 | 10.23 | 103.12 | 72.77 | 93.44 |  |  |  |  |  | 
Cl.Cl.c1ccc(-c2cc3ccncc3cc2OC2CCNCC2)cc1 [UNC10225463A] | 5.07 | 117.87 | 77.04 | 97.09 | 49.72 | 112.69 |  |  |  |  |  |  |  | 
Cl.Cl.NCC(NC(=O)c1cc(-c2ccccc2)c(-c2ccnc3[nH]ccc23)s1)c1ccccc1 (stereo not drawn) [UNC10225466A] | 5.04 |  |  | 133.16 | 18.77 | 129.43 | 104.29 | 96.16 |  |  |  |  |  | 

Compound | TFEB % (endogenous TFEB; PKIS2 primary screening) [%] | DQ Intensity (SH-SY5Y cells [1]; PKIS2 primary screening) | DQ Spot (SH-SY5Y cells [1]; PKIS2 primary screening) | AK (SH-SY5Y cells [2]; PKIS2 primary screening) | TFE3 % (endogenous TFE3; PKIS2 primary screening) [%] | Nuclear Count (SH-SY5Y cells [3]; PKIS2 primary screening) | DQ Intensity (SH-SY5Y cells [1]; [4]) | DQ Spot (SH-SY5Y cells [1]; [5]) | TFEB % (endogenous TFEB; PKIS2 primary screen) [%] | DQ Intensity (SH-SY5Y cells [1]; PKIS2 primary screen, DQ Red BSA intensity) | DQ Spot (SH-SY5Y cells [1]; PKIS2 primary screen, DQ Red BSA spot count) | AK (SH-SY5Y cells [2]; PKIS2 primary screen) | TFE3 % (endogenous TFE3; PKIS2 primary screen) [%] | Nuclear Count (SH-SY5Y cells [3]; PKIS2 primary screen)
Cl.Cl.NCC(NCc1ccc(-c2ccnc3[nH]ccc23)s1)c1ccccc1 (stereo not drawn) [UNC10225471A] | 4.03 |  |  | 98.53 | 13.41 | 123.37 | 100.58 | 94.95 |  |  |  |  |  | 
CN(C(=O)c1ccc(-c2cc(-c3c[nH]nc3-c3ccccn3)ccn2)cc1)C1CCOCC1 [UNC10225473A] | 8.39 |  |  | 101.87 | 13.07 | 84.56 | 126.52 | 117.08 |  |  |  |  |  | 
CCn1c(-c2ccoc2)nc2cnccc21 [UNC10225474A] | 2.97 | 148.88 | 113.44 | 125.64 | 9.12 | 101.97 |  |  |  |  |  |  |  | 
COc1ccc(NC(=O)c2ccc(-c3cc(-c4nnc(C)o4)ccc3C)cc2)cc1 [UNC10225475A] | 3.99 | 95.33 | 98.26 | 97.70 | 13.72 | 99.11 |  |  |  |  |  |  |  | 
Cn1cc(-c2ccc3c(c2)CCN3C(=O)Cc2cc(F)cc(C(F)(F)F)c2)c2c(N)ncnc21 [UNC10225478A] | 5.80 | 103.20 | 103.08 | 72.42 | 18.35 | 95.63 |  |  |  |  |  |  |  | 
CC(=O)N1CCN(c2ccc(Nc3nccc(-c4sc(C(C)C)nc4-c4cccc(NS(=O)(=O)c5cccc(Cl)c5)c4)n3)cn2)CC1 [UNC10225481A] | 3.72 | 100.90 | 115.22 | 73.54 | 9.55 | 128.41 |  |  |  |  |  |  |  | 
Cl.Oc1ccc(-c2nc(-c3ccccc3)[nH]c2-c2ccncc2)cc1 [UNC10225482A] | 7.63 |  |  | 90.33 | 9.08 | 92.35 | 99.60 | 108.10 |  |  |  |  |  | 
CSc1ccc(-c2nc3n(c2-c2ccncc2)CCC3)cc1 [UNC10225486A] | 5.52 |  |  | 80.57 | 13.99 | 91.88 | 119.41 | 102.53 |  |  |  |  |  | 
Cl.c1ccc(Cn2ccc3cc(Nc4ncnc5ccccc45)ccc32)cc1 [UNC10225488A] | 3.41 |  |  | 113.68 | 8.10 | 128.88 | 101.44 | 98.20 |  |  |  |  |  | 
Cc1ccc(CC(=O)N2CCc3cc(-c4cn(C)c5ncnc(N)c45)ccc32)cc1 [UNC10225490A] | 5.80 | 104.55 | 111.62 | 123.53 | 14.69 | 101.02 |  |  |  |  |  |  |  | 
Cc1ccccc1COc1cc(-n2cnc3cc(Cl)ccc32)sc1C(N)=O [UNC10225491A] | 9.14 | 119.27 | 99.65 | 190.42 | 6.85 | 71.39 |  |  |  |  |  |  |  | 
Cc1nccc(-c2c(-c3ccc(F)cc3)ncn2CCCN2CCOCC2)n1.Cl [UNC10225493A] | 4.71 | 90.01 | 96.19 | 100.35 | 13.96 | 97.00 |  |  |  |  |  |  |  | 
Nc1nccc2scc(-c3ccc4c(c3)CCN4C(=O)Cc3cc(F)ccc3F)c12 [UNC10225494A] | 3.18 |  |  | 74.58 | 17.46 | 97.20 | 123.47 | 108.12 |  |  |  |  |  | 
COc1cc2ncn(-c3cc(OCC4CCCCC4)c(C(N)=O)s3)c2cc1OC [UNC10225496A] | 3.76 | 104.41 | 104.84 | 73.76 | 7.72 | 113.87 |  |  |  |  |  |  |  | 
Cn1cncc1-c1ccc2ncnc(Nc3ccc(OCc4ccccc4)cc3)c2c1 [UNC10225497A] | 8.56 |  |  | 50.65 | 13.09 | 104.34 | 100.86 | 83.02 |  |  |  |  |  | 
Cc1cccc(-c2cc(-c3c[nH]nc3-c3ccccn3)ccn2)c1 [UNC10225499A] | 5.43 |  |  | 88.92 | 5.64 | 133.11 | 88.33 | 90.33 |  |  |  |  |  | 
Nc1ncc(-c2cn[nH]c2)c2scc(-c3ccc4c(c3)CCN4C(=O)Cc3ccccc3)c12 [UNC10225500A] | 8.67 |  |  | 74.47 | 18.45 | 110.94 | 108.00 | 96.83 |  |  |  |  |  | 
